Earlier results on 2 compounds are cited in US20220354785A1, “ORAL LOZENGE PRODUCTS” (NICOVENTURES TRADING LIMITED, priority 2021, published 2022).

For series [1] the following is noted: aqueous environment (e.g., saliva) / water.
The conditions of series [2]: isomerizes to trans-bixin.

For the compound `COC(=O)/C=C/C(C)=C\C=C\C(C)=C\C=C\C=C(C)\C=C\C=C(C)\C=C\C(=O)O` [bixin], in series [1], the solubility in water entry was “insoluble in water”. The “chemical stability when isolated” value in series [2] was “chemically unstable when isolated”. On to `C=C(C)[C@@H]1CCC(C)=C[C@H]1c1c(O)cc(CCCCC)cc1O` [CBD, cannabidiol], for which the logP value entry is “about 6.5”.
